Like-named read-outs stand apart in the source and are kept apart here.
Columns and labels:
FPR1 = biological target: T1, FPR1 (Homo sapiens, UniProt P21462); assay: Ca2+ mobilization in FPR1-transfected HL60 cells; assay type: cell-based; conditions: for efficacy (%) HL60‐FPR1: % of the response induced by 5 nM fMLF
T1 construct: expressed in transfected cells
T1 sequence (P21462 1-350): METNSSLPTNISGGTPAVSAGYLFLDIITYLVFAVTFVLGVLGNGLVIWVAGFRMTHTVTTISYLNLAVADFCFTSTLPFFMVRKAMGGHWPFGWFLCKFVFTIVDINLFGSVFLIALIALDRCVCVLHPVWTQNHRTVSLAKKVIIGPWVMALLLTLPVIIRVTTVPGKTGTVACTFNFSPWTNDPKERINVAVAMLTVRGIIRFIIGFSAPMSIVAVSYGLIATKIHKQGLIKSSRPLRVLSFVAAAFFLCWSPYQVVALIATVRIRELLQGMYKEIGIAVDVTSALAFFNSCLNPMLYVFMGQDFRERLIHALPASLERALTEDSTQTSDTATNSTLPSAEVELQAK
Experimental: (§1) Although stable cell lines are cultured under G418 selection pressure, G418 may affect some assays, so it was removed in the last round of culture before assays were performed.
(§2) Changes in intracellular Ca^2+ were measured with a FlexStation II scanning fluorometer (Molecular Devices). The cells, suspended in Hank's balanced salt solution without Ca^2+ and Mg^2+ but with 10 mM HEPES (HBSS^‐), were loaded with 1.25 μg/ml Fluo‐4 a.m. dye and incubated for 30 min in the dark at 37°C. After dye loading, the cells were washed with HBSS^‐ containing 10 mM HEPES, resuspended in HBSS^+ containing Ca^2+, Mg^2+, and 10 mM HEPES (HBSS^+), and aliquoted into the wells of flat‐bottom, half‐area‐well black microtiter plates (2 × 10^5 cells/well). For evaluation of direct agonist activity, compounds of interest were added from a source plate containing dilutions of test compounds in HBSS^+, and changes in fluorescence were monitored (λex = 485 nm, λem = 538 nm) every 5 s for 240 s at room temperature after automated addition of compounds. Maximum change in fluorescence during the first 3 min, expressed in arbitrary units over baseline, was used to determine a response. […] Curve fitting (5–6 points) and calculation of median effective inhibitory concentrations (IC50) were performed by nonlinear regression analysis of the dose–response curves generated using Prism 7 (GraphPad Software, Inc.).

FPR2 = biological target: T2, FPR2 (Homo sapiens, UniProt P25090); assay: Ca2+ mobilization in FPR2-transfected HL60 cells; assay type: cell-based; conditions: for efficacy (%) HL60‐FPR2: % of the response induced by 5 nM WKYMVm
T2 construct: expressed in transfected cells
T2 sequence (P25090 1-351): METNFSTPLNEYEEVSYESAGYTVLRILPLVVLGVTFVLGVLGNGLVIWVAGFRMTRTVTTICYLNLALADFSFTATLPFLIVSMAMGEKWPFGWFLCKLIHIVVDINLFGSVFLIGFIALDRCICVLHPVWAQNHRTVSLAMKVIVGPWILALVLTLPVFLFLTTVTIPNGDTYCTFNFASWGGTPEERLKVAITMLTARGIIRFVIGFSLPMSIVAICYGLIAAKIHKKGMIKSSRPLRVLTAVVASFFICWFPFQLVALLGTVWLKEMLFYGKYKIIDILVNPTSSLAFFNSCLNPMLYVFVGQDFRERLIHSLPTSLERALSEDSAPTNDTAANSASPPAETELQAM
Experimental: as §1, §2

human neutrophils (hPMN) = assay: Ca2+ mobilization in human neutrophils (hPMN); assay type: cell-based; conditions: for efficacy (%) hPMN: % of the response induced by 5 nM fMLF; for EC50: Homo sapiens, Neutrophil
Source text: Blood was collected from healthy donors in accordance with a protocol approved by the Institutional Review Board at Montana State University. Neutrophils were purified from the blood using dextran sedimentation, followed by Histopaque 1077 gradient separation and hypotonic lysis of red blood cells. Isolated neutrophils were washed twice and resuspended in HBSS^‐. Neutrophil preparations were routinely >95% pure, as determined by light microscopy, and >98% viable, as determined by trypan blue exclusion.
Changes in intracellular Ca^2+ were measured with a FlexStation II scanning fluorometer (Molecular Devices). The cells, suspended in Hank's balanced salt solution without Ca^2+ and Mg^2+ but with 10 mM HEPES (HBSS^‐), were loaded with 1.25 μg/ml Fluo‐4 a.m. dye and incubated for 30 min in the dark at 37°C. After dye loading, the cells were washed with HBSS^‐ containing 10 mM HEPES, resuspended in HBSS^+ containing Ca^2+, Mg^2+, and 10 mM HEPES (HBSS^+), and aliquoted into the wells of flat‐bottom, half‐area‐well black microtiter plates (2 × 10^5 cells/well). For evaluation of direct agonist activity, compounds of interest were added from a source plate containing dilutions of test compounds in HBSS^+, and changes in fluorescence were monitored (λex = 485 nm, λem = 538 nm) every 5 s for 240 s at room temperature after automated addition of compounds. Maximum change in fluorescence during the first 3 min, expressed in arbitrary units over baseline, was used to determine a response. […] Curve fitting (5–6 points) and calculation of median effective […] were performed by nonlinear regression analysis of the dose–response curves generated using Prism 7 (GraphPad Software, Inc.).

[1] = test system: rat model of rheumatoid arthritis; set-up: method as in Crocetti et al., 2020; conditions: ref Crocetti et al., 2020; cited from earlier work
FPR3 = conditions: Figure 2, ref Vergelli et al., cited from earlier work
[2] = test system: animal models of rheumatoid arthritis; set-up: method as in Burli et al., 2006; Odobasic et al., 2018; conditions: ref Burli et al., 2006; Odobasic et al., 2018; cited from earlier work
healthy human subject = test system: healthy human subject; set-up: method as in Lind et al., 2019; Stalder et al., 2017; conditions: phase I clinical trial, ref Lind et al., 2019, Stalder et al., 2017; cited from earlier work
[3] = Ca2+ mobilization, mean of three independent experiments, N.A. = no activity (limits efficacy <20% and EC50 < 50 µM)

| SMILES | efficacy (%) HL60‐FPR1 (FPR1) [%] | EC50 (FPR2) [µM] | efficacy (%) HL60‐FPR2 (FPR2) [%] | efficacy (%) hPMN (human neutrophils (hPMN)) [%] | EC50 (human neutrophils (hPMN)) [µM] | melting point | other results |
| --- | --- | --- | --- | --- | --- | --- | --- |
| COc1cccc(-c2nn(CC(=O)Nc3ccc(Br)cc3)c(C)c2C#N)c1 [Compound 7a, N‐(4‐Bromophenyl)‐2‐[4‐cyano‐3‐(3‐methoxyphenyl)‐5‐methylpyrazol‐1‐yl]acetamide] | 75 | 6.1 ± 2.2 | 75 | 80 | 6.5 ± 1.6 |  | EC50 (FPR1): 18.4 ± 4.3 µM; preference for FPR2 (FPR2; FPR2 over FPR1, from EC50 values): threefold |
| COc1cccc(Nc2c(C)c(-c3ccccc3)nn2CC(=O)Nc2ccc(Br)cc2)c1 [Compound 4c, N‐(4‐Bromophenyl)‐2‐[5‐(3‐methoxyphenylamino)‐4‐methyl‐3‐phenylpyrazol‐1‐yl]acetamide] |  |  |  |  |  | > 300 °C (dec.) |  |
| Cc1cc(OCC(=O)Nc2ccc(Br)cc2)n[nH]1 [Compound 15, N‐(4‐bromophenyl)‐2‐[(5‐methyl‐1H‐pyrazol‐3‐yl)oxy]acetamide] | 60 | 25.9 ± 6.4 | 60 | 55 | 18.6 ± 4.7 |  | EC50 (FPR1): 9.8 ± 2.7 µM |
| COc1ccc(Nc2c(C#N)cnn2CC(=O)Nc2ccc(Br)cc2)cc1 [Compound 4b, N‐(4‐Bromophenyl)‐2‐[4‐cyano‐5‐(4‐methoxyphenylamino)pyrazol‐1‐yl]acetamide] |  |  |  |  |  | 136 to 139 °C |  |
| COc1cccc(Cc2c(C)c(C)nn(CC(=O)Nc3ccc(Br)cc3)c2=O)c1 [EC3, reference compound] | 85 |  | 80 | 150 |  |  | EC50 (FPR1; [3]): 0.019 ± 0.005 µM; EC50 (FPR2; [3]): 0.043 ± 0.0016 µM; anti‐inflammatory activity in vivo [1]: anti‐inflammatory activity; EC50 (FPR3; 2017): 0.04 µM |
| COc1cccc(-c2cc(C#N)c(=O)n(CC(=O)Nc3ccc(Br)cc3)c2C)c1 [Compound 2a] |  |  |  |  |  |  | anti‐inflammatory activity in vivo [1]: anti‐inflammatory activity |
| CC(C)c1c(NC(=O)Nc2ccc(Cl)cc2)c(=O)n(-c2ccccc2)n1C [Cpd43] |  |  |  |  |  |  | profile in animal models of rheumatoid arthritis [2]: excellent profile |
| O=C(Cn1c(=O)ccn1-c1ccccc1)Nc1ccc(Br)cc1 [Compound 9a, N‐(4‐Bromophenyl)‐2‐(5‐oxo‐2‐phenyl‐2,5‐dihydropyrazol‐1‐yl)acetamide] |  |  |  |  |  | 136 to 139 °C |  |
| COc1ccc(Nc2c(C)c(-c3ccccc3)nn2CC(=O)Nc2ccc(Br)cc2)cc1 [Compound 4d, N‐(4‐Bromophenyl)‐2‐[5‐(4‐methoxyphenylamino)‐4‐methyl‐3‐phenylpyrazol‐1‐yl]acetamide] |  |  |  |  |  | 212 to 214 °C |  |
| CCCCCCn1c(=O)c(-c2cccc(OC)c2)cn1-c1ccccc1 [Compound 13f, Hexyl‐4‐(3‐methoxyphenyl)‐1‐phenyl‐1,2‐dihydropyrazol‐3‐one] | 35 | 10.5 ± 3.5 | 90 | 55 | 13.8 ± 4.2 |  | EC50 (FPR1): 20.2 ± 5.4 µM |
| COc1cccc(Nc2cn(-c3ccccc3)n(CC(=O)Nc3ccc(Br)cc3)c2=O)c1 [Compound 10, N‐(4‐Bromophenyl)‐2‐[4‐(3‐methoxyphenylamino)‐5‐oxo‐2‐phenyl‐2,5‐dihydropyrazol‐1‐yl]acetamide] |  |  |  |  |  | 163 to 166 °C |  |
| COc1cccc(Nc2c(C(C)=O)c(C)nn(CC(=O)Nc3ccc(Br)cc3)c2=O)c1 [EC10, reference compound] | 185 |  | 60 | 150 | 0.036 ± 0.007 |  | EC50 (FPR1; [3]): 0.045 ± 0.016 µM; EC50 (FPR2; [3]): 0.17 ± 0.038 µM; anti‐inflammatory activity in vivo [1]: anti‐inflammatory activity; EC50 (FPR3; 2016): 0.21 µM |
| Cc1cccc(-c2oc(C)nc2C(=O)Nc2cnn(Cc3nc(C(C)(F)F)co3)n2)c1 [Act‐389949] |  |  |  |  |  |  | safety and tolerability (healthy human subject): safe and well tolerated |
| COc1cccc(Nc2ccnn2CC(=O)Nc2ccc(Br)cc2)c1 [Compound 4e, N‐(4‐Bromophenyl)‐2‐[5‐(3‐methoxyphenylamino)‐pyrazol‐1‐yl]acetamide] | 85 | 23.4 ± 5.3 | 60 | 75 | 8.2 ± 2.6 | 140 to 143 °C | EC50 (FPR1): 13.2 ± 2.6 µM |
| Nc1cn(-c2ccccc2)n(CC(=O)Nc2ccc(Br)cc2)c1=O [Compound 9b, 2‐(4‐Amino‐5‐oxo‐2‐phenyl‐2,5‐dihydropyrazol‐1‐yl)‐N‐(4‐bromophenyl)acetamide] |  | 23.1 ± 6.3 | 50 |  |  | 160 to 163 °C | EC50 (µM) hPMN (human neutrophils (hPMN); Ca2+ mobilization in human neutrophils, mean of three independent experiments, N.A. = no activity (limits efficacy <20% and EC50 < 50 µM)): inactive |

Source: PMC8446315, “Synthesis, biological evaluation, molecular modeling, and structural analysis of new pyrazole and pyrazolone derivatives as N‐formyl peptide receptors agonists” (Chemical Biology & Drug Design, 2021)
